According to US11249100B2, “Modular robotic systems for delivering fluid to microfluidic devices” (Worcester Polytechnic Institute, priority 2018, dated 2022):
Entries after “also recorded” stand apart in the source; their conditions may differ.

Legend:
AWA chemosensory neurons [1] = assay: Automated solvent screen: optogenetically (Chrimson) evoked GCaMP calcium responses in living nematodes; format: in vivo, C. elegans; details: for effect on peak fluorescent responses to Chrimson-induced activation: <1 min exposure, compared to prior buffer control, 20 young adult animals; for persistence of suppression after returning to buffer fluid: alternating buffer control wells after solvent wells
Description: The C. elegans strain NZ1091 was integrated by irradiation and backcrossed at least 10×. Animals were grown and maintained at 20° C. on NGM plates with OP50 E. coli bacteria. At least 12 hrs prior to experimentation, L4 stage C. elegans were picked and transferred to 50 μM All Trans Retinal (ATR) in OP50 E. coli spotted onto an unseeded NGM plate. For the dose response experiment, C. elegans were selected as L4s the day before and tested as young adults the next day.
All solvents were prepared in Eppendorf tubes at 1% and 5% v/v concentrations to 1 mL in paralysis buffer (S. Basal buffer without cholesterol containing the acetylcholine agonist 1 mM (−)-tetramisole hydrochloride) and vortexed to mix for 30 s-1 min. Solvent dilutions were transferred to a 96 deep well plate (700µL/well). Alternating control wells were filled with 100 ng/mL fluorescein in paralysis buffer to visualize alternating solution delivery. Animals were exposed to paralysis buffer flow for ˜1-2 hrs prior to solvent delivery to keep animals stationary during recording. The 96 well plate was loaded with solvent solutions by hand the hour before recording and sealed with adhesive film (Glad® Press-n-Seal).
Methods followed those described previously. About 20-30 animals co-expressing GCaMP and Chrimson in the AWA chemosensory neuron pair were loaded into a modified high-throughput microfluidic imaging device optimized for 4× magnification with only the inlet, back pressure, worm loading, and outlet port(s) punched. Optical configurations were customized using an ASI RAMM frame and commercially available components for low-magnification wide-filed GCaMP excitation (4×/0.28 NA), compatible with Chrimson excitation, and high-resolution (1024×1024) 10 fps image acquisition. In addition to the optical set up described above, a 617 nm Mightex LED was mounted beneath the RAMM stage with an additional cube housing a 590 LP excitation dichroic to pass uniform Chrimson activation across the entire field of view. At each inlet well position, animals were exposed to solution for <1 min total, during which a 30 s delay was programmed to sufficiently fill the tubing after each well transfer for serially delivered solutions. Then, an immediate acquisition of 15 s (10 frames/s, 10 ms blue light pulse, 10 ms delay, 2×2 binning) began with a 617 nm light presence for 5 s (from 2.5 s to 7.5 s). Custom scripts were used for quantifying neuron fluorescence (Neurotracker ImageJ macro) and MATLAB17a for data analysis and visualization.
The robotic system was used to screen 14 different solvents at two concentrations (1% and 5%) for their effects on optogenetically-evoked neural responses. Solvent dilutions were prepared in a 96-well plate alternating with buffer control wells (FIG. 8A). A previously established high-throughput imaging device was used to record calcium signals from individual neurons of 20-25 young adult animals (FIG. 8B). Animals co-expressed the red-shifted channelrhodopsin (Chrimson) and the genetically encoded calcium sensor (GCaMP2.2b) in the AWA chemosensory neurons (FIG. 8C), allowing simultaneous optical stimulation and monitoring of neural responses.

ASER chemosensory neuron = details: ASER::GCaMP; downshift from base 40 mM NaCl; triplicate pulses
Description: Salt solutions (0-40 mM) were prepared by diluting S. Basal buffer (100 mM NaCl) with an iso-osmotic buffer of 186 mM glycerol.
Either the input stimulus (in, fluorescein for visualization) or buffer can bathe the animals depending on which control channel flows (c1 for input, c2 for buffer). […] Triplicate pulses (10 s) are delivered once per minute at a given concentration, followed by an increase in concentration with a delay of ˜45 s.
Animals expressing GCaMP in the ASER chemosensory neuron, which responds to salt downshifts, were stimulated with triplicate repeat pulses of NaCl, decreasing from a base 40 mM NaCl to a variable level from 40 mM (0 change) to 0 mM (−40 mM change).

AWA chemosensory neurons [2] = assay: Automated diacetyl odor dose response, GCaMP calcium imaging; format: in vivo, C. elegans
[3] = 1% v/v solvent in paralysis buffer
[4] = 5% v/v solvent in paralysis buffer

| Structure (SMILES) | effect on peak fluorescent responses to Chrimson-induced activation (AWA chemosensory neurons [1]; [3]) | effect on peak fluorescent responses to Chrimson-induced activation (AWA chemosensory neurons [1]; [4]) | persistence of suppression after returning to buffer fluid (AWA chemosensory neurons [1]) | further results |
| --- | --- | --- | --- | --- |
| CN(C)C=O [DMF] | weaker suppressive effects | – | – | – |
| C[S+](C)[O-] [DMSO] | variable and weakly suppressed responses; also recorded: weaker suppressive effects | – | – | – |
| [Cl-].[Na+] [NaCl] | – | – | – | NaCl shift giving a minimal but robust response in ASE (ASER chemosensory neuron): shift from 40 mM to 35 mM |
| CC(C)=O [acetone] | – | weaker suppressive effects | – | – |
| CC#N [acetonitrile] | – | significantly suppressed; also recorded: most significant suppressive effects | transient | – |
| CC(=O)C(C)=O [diacetyl] | – | – | – | diacetyl concentration giving a minimal but robust odor response in AWA (AWA chemosensory neurons [2]; AWA::GCaMP young adults, triplicate odor pulses once per minute): 0.1 µM; odor-evoked neural responses versus concentration (AWA chemosensory neurons [2]; AWA::GCaMP, diacetyl from 0.1 μM to 1 mM): strengthened with increasing odor concentration |
| CCO [ethanol] | – | variable and weakly suppressed responses; also recorded: most significant suppressive effects | – | – |
| CC(C)O [isopropanol] | significantly suppressed | significantly suppressed; also recorded: most significant suppressive effects | transient | effect on optogenetically-evoked neural responses (AWA chemosensory neurons [1]; solvents at 1% and 5%, concentration not separated): suppression of optogenetic stimulation |
| CO [methanol] | significantly suppressed | significantly suppressed; also recorded: most significant suppressive effects | transient | – |
